US12391799B2, “Peptoid polymers and methods of use” (X-Therma, Inc., priority 2017, dated 2025)
Numbered stars: 1 amine (or outer) side, 2 acyl side, 3 side chain; on linkers, the order of the positions; unused ones are H or OH. Square brackets hold non-standard residues; d marks the D form. Peptide text beside a SMILES is read from it. X1 = CC(O)CN(CC(=O)[*:2])[*:1]; NPrGly = CCCNCC(=O)O; Sar = CNCC(=O)O

What was measured:
[1] = Vitrification screening assay (critical EG concentration); type: physicochemical; conditions: for Critical Ethylene Glycol Concentration: lowest EG for complete vitrification of 20 μL sample, 5 mg/mL peptoid in formulation, liquid nitrogen immersion
Protocol: As another means of increasing the throughput of library analysis, a vitrification screening assay was performed to evaluate anti-icing efficacy. For these experiments the compounds named “Compound 11,” “Compound 12,” “Compound 25,” Compound 26,” “Compound 27,” “Compound 28,” “Compound 60,” “Compound 62,” “Compound 63,” “Compound 64,” “Compound 69,” “Compound 70,” “Compound 71,” “Compound 72,” “Compound 73,” “Compound 74,” “Compound 75,” “Compound 76,” “Compound 77,” “Compound 78,” “Compound 81,” “Compound 82,” “Compound 83,” “Compound 84,” and “Compound 85” were tested.
For these experiments, 20 μL samples were flash frozen by liquid immersion in liquid nitrogen. Ethylene glycol (EG) concentrations between 5% and 25% (v/v) were used. A concentration of 5 mg/mL of peptoid polymer compounds were used in formulation. Table 12 lists the lowest concentration of EG necessary to bring about complete vitrification of a 20 μL sample with peptoid polymer in formulation, referred to as the “critical EG concentration.” A sample of formulation without the presence of a peptoid polymer was only able to bring about vitrification at 20% or more EG. Peptoid polymers of interest were able to bring about vitrification within formulas containing EG when the concentration of EG was lower than 20%.

[2] = system: HEK293 cells; experiment: HEK293 survival after storage at −80° C. for 3 days (Alamar Blue); type: cell-based, human; conditions: 1% peptoid in XT Formula, HEK293 stored at −80° C. for 3 days, vs. XT Formula alone
Protocol: Several compounds were examined in XT Formula at 1% concentration (i.e., 1% peptoid polymer concentration) for their effects on the cryopreservation of HEK293 cells, an adherent cell line derived from human embryonic kidney cells. In particular, the effects of these compounds on the survival of HEK293 cells stored at −80° C. for 3 days were evaluated. An Alamar Blue assay was used to assess cell survival 1 day after stored cells were thawed. A 10% DMSO formula and DMEM cell media only were used as controls.

[3] = system: K562 cells; experiment: Cell toxicity assay in K562 cell culture; type: cell-based; conditions: 24 hours at 37° C. and 5% CO2
Protocol: The cytotoxicity of several compounds were evaluated using a typical cell toxicity assay in K562 cell culture. […] As a positive control, some cells were incubated without any peptoid polymer (DMEM). For a negative control, cells were incubated with DMSO (DMEM+10% DMSO).

[4] = system: K562 cells; experiment: K562 viability after storage at −20° C. for 3 days (Alamar Blue); type: cell-based; conditions: 1% peptoid in XT Formula, K562 stored at −20° C. for 3 days, vs. XT Formula alone
Protocol: Several compounds were examined in XT Formula at 1% concentration (i.e., 1% peptoid polymer concentration) for their ability to increase the viability of cells subjected to super-cooled storage. XT Formula contains HTK buffer, among other components. In particular, the effects of these compounds on the viability of K562 cells stored at −20° C. for 3 days were evaluated. An Alamar Blue assay was used to assess cell viability 7 days after stored cells were thawed.

[5] = system: HEK 293 cell line; experiment: Cell-based cytotoxicity assay (MTT); parameters: species or system human; conditions: serial dilutions in culture media, 37° C., about 3 to 5 days
Protocol: A Tecan Genesis Robotic Workstation was used to prepare solutions in 96- and 384-well plates. Solutions contained culture media, buffers, a cryoprotectant composition (Compound 12) or DMSO. Solutions were adjusted to the desired pH. Serial dilutions were performed to obtain solutions containing various concentrations of Compound 12 and DMSO. Control experiments were performed using only culture media.
For these experiments, cells were seeded at low density (i.e., 10% confluence), exposed to solutions containing Compound 12 or DMSO, and placed in a 37° C. incubator. The cells were allowed to grow until control cells that were treated only with empty vehicle approached 70% confluence (typically about 3 to 5 days). Assessment for compound cytotoxicity was via MTT assay.

Row | SMILES | Critical Ethylene Glycol Concentration [1] | cell survival 1 day after thaw [2] | cell viability 7 days after thaw [4] | also measured
1 | CCC(C)N(CC(=O)N(CC(=O)N(CC(=O)N(CC(=O)N(CC(=O)N(CC(=O)N(CC(N)=O)CC(C)O)CC(C)O)C(C)CC)C(C)CC)CC(C)O)CC(C)O)C(=O)CN(C(=O)CN(CC(C)O)C(=O)CNCC(C)O)C(C)CC (stereo not shown) [Compound 11] | 15.0% (ν/ν) | improved cell survival compared to XT Formula alone | – | –
2 | CNCC(=O)N(C)CC(=O)N(C)CC(=O)N(CC(=O)N(CC(=O)N(CC(=O)N(C)CC(=O)N(C)CC(=O)N(C)CC(=O)N(CC(N)=O)CC(C)O)CC(C)O)CC(C)O)CC(C)O (stereo not shown) [Compound 15] (H-[Sar][Sar][Sar][X1][X1][X1][Sar][Sar][Sar][X1]-NH2) | – | – | – | cytotoxicity (cell persistence) ([3]; 1% concentration): persisted about as well as cell incubated in cell culture media alone (DMEM)
3 | CCCNCC(=O)N(CCC)CC(=O)N(CC(=O)N(CC(=O)N(CCC)CC(=O)N(CCC)CC(=O)N(CC(=O)N(CC(=O)N(CCC)CC(=O)N(CCC)CC(N)=O)CC(C)O)CC(C)O)CC(C)O)CC(C)O (stereo not drawn) [Compound 27, Npr-Npr-Nhp-Nhp-Npr-Npr-Nhp-Nhp-Npr-Npr] (H-[NPrGly][NPrGly][X1][X1][NPrGly][NPrGly][X1][X1][NPrGly][NPrGly]-NH2) | 12.5% (ν/ν) | improved cell survival compared to XT Formula alone | improved cell viability compared to XT Formula alone | –
4 | CCC(C)NCC(=O)N(CC(=O)N(CCOC)CC(=O)N(CCOC)CC(=O)N(CC(=O)N(CC(=O)N(CCOC)CC(=O)N(CCOC)CC(=O)N(CC(=O)N(CC(N)=O)C(C)CC)C(C)CC)C(C)CC)C(C)CC)C(C)CC (stereo not drawn) [Compound 62, Nsb-Nsb-Nmo-Nmo-Nsb-Nsb-Nmo-Nmo-Nsb-Nsb] | 12.5% (ν/ν) | improved cell survival compared to XT Formula alone | improved cell viability compared to XT Formula alone | cytotoxicity (cell persistence) ([3]; 1% concentration): persisted about as well as cell incubated in cell culture media alone (DMEM); EG required to permit vitrification ([1]; 20 μL sample, 5 mg/mL peptoid, formulation without peptoid needs 20% or more EG): required significantly less EG in order to permit vitrification
5 | CNCC(=O)N(C)CC(=O)N(CC(=O)N(CC(=O)N(C)CC(=O)N(C)CC(=O)N(CC(=O)N(CC(=O)N(C)CC(=O)N(C)CC(N)=O)CC(C)O)CC(C)O)CC(C)O)CC(C)O (stereo not drawn) [Compound 64, Nme-Nme-Nhp-Nhp-Nme-Nme-Nhp-Nhp-Nme-Nme] (H-[Sar][Sar][X1][X1][Sar][Sar][X1][X1][Sar][Sar]-NH2) | 17.5% (ν/ν) | improved cell survival compared to XT Formula alone | – | –
6 | CCC(C)NCC(=O)N(CC(=O)N(CCO)CC(=O)N(CCO)CC(=O)N(CC(=O)N(CC(=O)N(CCO)CC(=O)N(CCO)CC(=O)N(CC(=O)N(CC(N)=O)C(C)CC)C(C)CC)C(C)CC)C(C)CC)C(C)CC (stereo not drawn) [Compound 74, Nsb-Nsb-Nhe-Nhe-Nsb-Nsb-Nhe-Nhe-Nsb-Nsb] | 15.0% (ν/ν) | – | improved cell viability compared to XT Formula alone | –
7 | CCC(C)NCC(=O)N(CC(=O)N(CC(=O)N(CC(=O)N(CC(=O)N(CC(=O)N(CC(=O)N(CC(=O)N(CC(=O)N(CC(N)=O)C(C)CC)C(C)CC)C(C)CO)C(C)CO)C(C)CC)C(C)CC)C(C)CO)C(C)CO)C(C)CC (stereo not drawn) [Compound 75, Nsb-Nsb-Nyp-Nyp-Nsb-Nsb-Nyp-Nyp-Nsb-Nsb] | 15.0% (ν/ν) | improved cell survival compared to XT Formula alone | – | –
8 | C[S+](C)[O-] [DMSO, dimethyl sulfoxide, reference compound] | – | – | – | cytotoxicity (cell persistence) ([3]; DMEM+10% DMSO): suffered significant toxicity; toxicity by MTT assay [5]: did not allow for warm survival for an extended period of time at any concentration above 0.5% (v/v)
